Data set [1] has as its target T1, Peroxisome proliferator-activated receptor alpha (Homo sapiens, UniProt Q07869).
T1 sequence (Q07869 whole entry): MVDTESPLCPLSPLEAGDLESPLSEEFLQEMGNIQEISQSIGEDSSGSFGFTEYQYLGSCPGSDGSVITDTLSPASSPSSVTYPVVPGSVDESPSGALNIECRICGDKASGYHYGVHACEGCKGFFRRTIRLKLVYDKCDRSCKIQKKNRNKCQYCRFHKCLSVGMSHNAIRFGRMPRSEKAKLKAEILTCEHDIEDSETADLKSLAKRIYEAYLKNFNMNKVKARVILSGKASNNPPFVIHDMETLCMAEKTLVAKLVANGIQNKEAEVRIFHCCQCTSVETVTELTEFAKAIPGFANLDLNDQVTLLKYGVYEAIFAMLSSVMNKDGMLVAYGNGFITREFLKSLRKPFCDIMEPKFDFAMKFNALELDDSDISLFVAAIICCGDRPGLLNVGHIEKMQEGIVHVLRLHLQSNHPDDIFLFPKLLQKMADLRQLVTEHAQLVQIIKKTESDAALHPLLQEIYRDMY
Briefly: Activity at human PPAR alpha by cell-based transactivation assay.

In data set [2] the target is T2, Peroxisome proliferator-activated receptor gamma (Homo sapiens, UniProt P37231).
T2 sequence (P37231 whole entry): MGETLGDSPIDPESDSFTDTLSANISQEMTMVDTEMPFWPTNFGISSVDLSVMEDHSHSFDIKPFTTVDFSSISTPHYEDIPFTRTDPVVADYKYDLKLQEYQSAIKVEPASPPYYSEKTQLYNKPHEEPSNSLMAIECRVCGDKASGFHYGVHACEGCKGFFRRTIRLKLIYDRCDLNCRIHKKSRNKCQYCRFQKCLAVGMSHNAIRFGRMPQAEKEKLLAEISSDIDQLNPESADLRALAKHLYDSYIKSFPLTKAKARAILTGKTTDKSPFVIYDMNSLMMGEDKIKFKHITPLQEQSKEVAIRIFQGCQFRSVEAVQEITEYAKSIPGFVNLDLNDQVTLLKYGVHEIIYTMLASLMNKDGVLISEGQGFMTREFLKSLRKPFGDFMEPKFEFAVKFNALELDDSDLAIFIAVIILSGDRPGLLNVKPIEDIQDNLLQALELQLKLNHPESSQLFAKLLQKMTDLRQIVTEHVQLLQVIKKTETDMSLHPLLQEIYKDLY
Kind of data set: Activity at human PPAR gamma by cell-based transactivation assay.

Data set [3] deals with T3, Peroxisome proliferator-activated receptor delta (Homo sapiens, UniProt Q03181).
T3 sequence (Q03181 whole entry): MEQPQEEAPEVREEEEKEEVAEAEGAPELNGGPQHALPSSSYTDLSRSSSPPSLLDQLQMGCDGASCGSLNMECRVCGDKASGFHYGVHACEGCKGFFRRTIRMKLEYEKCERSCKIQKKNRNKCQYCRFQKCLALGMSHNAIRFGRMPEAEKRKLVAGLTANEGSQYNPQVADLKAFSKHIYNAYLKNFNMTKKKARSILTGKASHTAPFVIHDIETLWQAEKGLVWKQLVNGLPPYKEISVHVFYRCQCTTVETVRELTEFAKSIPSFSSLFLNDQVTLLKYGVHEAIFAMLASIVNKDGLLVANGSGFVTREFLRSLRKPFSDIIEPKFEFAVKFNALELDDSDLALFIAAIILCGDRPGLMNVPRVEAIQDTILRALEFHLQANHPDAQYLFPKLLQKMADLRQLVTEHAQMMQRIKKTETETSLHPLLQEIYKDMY
Kind of data set: Activity at human PPAR delta by cell-based transactivation assay.

A short description of data set [4]: Stability in mouse liver microsomes. Format: ADME, Microsome.
Data set [5] has as its system Liver microsomes. Kind of data set: Stability in rat liver microsomes. Format: ADME, Microsome.
Data set [6] relates to Liver microsomes. Briefly: Stability in human liver microsomes. It counts as ADME, Microsome.
A short description of data set [7]: Cmax in C57BL/6 mouse at 20 mg/kg, po. Format: ADME, organism-based. Conditions: in vivo. Details: dose 20 mg/kg, route oral.
A short description of data set [8]: Half life in C57BL/6 mouse at 20 mg/kg, po. Format: ADME, organism-based. Details: dose 20 mg/kg, route oral. The settings on record: in vivo.
The subject of data set [9] is Mus musculus. Briefly: Regulation of PDK4 gene expression in C57BL/6 mouse skeletal muscle at 10 mg/kg, po. The settings on record: Muscle tissue. It counts as functional, organism-based. The arrangement: dose 10 mg/kg.
Data set [10] concerns Mus musculus. Kind of data set: Regulation of ApoAIV gene expression in C57BL/6 mouse jejunum at 10 mg/kg, po. It counts as functional, organism-based. The arrangement: dose 10 mg/kg.
In data set [11] the test system is Mus musculus. Kind of data set: Regulation of UCP3 gene expression in C57BL/6 mouse skeletal muscle at 10 mg/kg, po. Format: functional, organism-based. The arrangement: dose 10 mg/kg. Conditions: Muscle tissue.

Structures are written as SMILES. Activity calls are given as the source filed them. No cut-off for these calls is given here.

The values below come from ChEMBL document CHEMBL1139688, “3,4,5-Trisubstituted isoxazoles as novel PPARdelta agonists. Part 2” (Bioorg Med Chem Lett, 2006).

For `CC(C)c1onc(-c2cccc(CC(=O)O)c2)c1C(=O)NCCOc1ccc(Cl)cc1Cl`, the EC50 in data set [1] is more than 10 µM; in [2], more than 10 µM; in data set [3], 1.07 µM. Besides, the Stability entry (in [4]; in the data set on Liver microsomes [5]; with Liver microsomes [6]) was “Stable” each time.

For `Cc1ccccc1-c1onc(-c2cccc(CC(=O)O)c2)c1C(=O)NCCOc1ccc(Cl)cc1Cl`, the EC50 in data set [1] is more than 10 µM; in data set [2], more than 10 µM; in [3], 0.05 µM. This molecule gave a Cmax in data set [7] of 1900 nM. Also, the half-life in data set [8] is 1.5 h. The Stability result (in data set [4]; in the data set with Liver microsomes [5]; with Liver microsomes [6]) was “Stable” each time.

For `O=C(O)c1ccc(-c2noc(-c3ccccc3)c2C(=O)NCCOc2ccc(Cl)cc2Cl)cc1`, the EC50 in data set [1], in [2] and in data set [3] was more than 10 µM each time. Further, the Stability entry (in data set [4]; in the data set with Liver microsomes [5]; in the data set on Liver microsomes [6]) was “Stable” throughout.

Turning to `O=C(O)Cc1ccc(OCc2noc(-c3ccccc3)c2C(=O)NCCOc2ccc(Cl)cc2Cl)c(Cl)c1`, the EC50 in [1], in [2] and in [3] was more than 10 µM throughout. For the same molecule, the Stability result (in data set [4]; with Liver microsomes [5]; in the data set on Liver microsomes [6]) was “Stable” each time.

In the case of `O=C(O)Cc1ccc(-c2noc(-c3ccccc3)c2C(=O)NCCOc2ccc(Cl)cc2Cl)cc1`, the EC50 in [1] was more than 10 µM; in data set [2], more than 10 µM; in data set [3] it was 0.72 µM. Further, the Stability result (in [4]; with Liver microsomes [5]; with Liver microsomes [6]) was “Stable” throughout.

Consider `O=C(O)Cc1cccc(-c2noc(-c3ccccc3)c2C(=O)NCCOc2ccc(Cl)cc2Cl)c1`, for which the EC50 in data set [1] is more than 10 µM; in data set [2] it was more than 10 µM; in data set [3] it was 0.07 µM. In addition, in data set [7], the Cmax was 5100 nM. This molecule gave a half-life in data set [8] of 3.1 h. Besides, the result in the data set on Mus musculus [9], with Mus musculus [10] and with Mus musculus [11] was Active. For the same molecule, the Stability entry (in data set [4]; with Liver microsomes [5]; with Liver microsomes [6]) was “Stable” throughout.

On to `COc1ccc(CC(=O)O)cc1-c1noc(-c2ccccc2)c1C(=O)NCCOc1ccc(Cl)cc1Cl`, for which the half-maximal effective concentration (EC50) in data set [1] is more than 10 µM; in data set [2] it was more than 10 µM; in data set [3] it was 0.56 µM. Further, the Stability entry (in data set [4]; in the data set with Liver microsomes [5]; with Liver microsomes [6]) was “Stable” each time.

Take `O=C(O)Cc1cccc(-c2noc(-c3ccco3)c2C(=O)NCCOc2ccc(Cl)cc2Cl)c1`: the EC50 in data set [1] was more than 10 µM; in data set [2] it was more than 10 µM; in data set [3] it was 0.09 µM. Also, in [7], the maximum concentration (Cmax) was less than 300 nM. Also, the half-life in [8] was less than 0.5 h. Moreover, the Stability result (in data set [4]; in the data set with Liver microsomes [5]; in the data set with Liver microsomes [6]) was “Stable” in each case.

As to `O=C(O)CCc1cccc(-c2noc(-c3ccccc3)c2C(=O)NCCOc2ccc(Cl)cc2Cl)c1`, the results for the EC50 in [1], in data set [2] and in data set [3] were more than 10 µM, more than 10 µM and 0.97 µM, respectively. The Stability result (in data set [4]; with Liver microsomes [5]; in the data set on Liver microsomes [6]) was “Stable” throughout.

Regarding `O=C(O)Cc1cccc(-c2noc(-c3ccccc3Cl)c2C(=O)NCCOc2ccc(Cl)cc2Cl)c1`, the figures for the EC50 in data set [1], in [2] and in data set [3] were more than 10 µM, more than 10 µM and 0.06 µM, respectively. Further, the Cmax in [7] is 5600 nM. The same molecule showed a half-life in data set [8] of 1.1 h. The Stability entry (in data set [4]; in the data set with Liver microsomes [5]; in the data set with Liver microsomes [6]) was “Stable” throughout.

Consider `Cc1cc(-c2noc(-c3ccccc3)c2C(=O)NCCOc2ccc(Cl)cc2Cl)ccc1OCC(=O)O`, for which the EC50 in [1] was more than 10 µM; in data set [2], more than 10 µM; in data set [3], 0.2 µM. In data set [7], this molecule yielded a Cmax of less than 300 nM. This molecule yielded a half-life in [8] of less than 0.5 h. The Stability entry (in [4]; in the data set with Liver microsomes [5]; in the data set on Liver microsomes [6]) was “Stable” throughout.

Consider `O=C(O)Cc1ccc(-c2noc(-c3ccccc3)c2C(=O)NCCOc2ccc(Cl)cc2Cl)c(Cl)c1`, for which the concentration giving a half-maximal response (EC50) in [1] and in data set [2] was more than 10 µM each time. In data set [7], this molecule yielded a Cmax of less than 300 nM. The molecule also yielded a half-life in data set [8] of less than 0.5 h. Besides, the Stability result (in data set [4]; in the data set with Liver microsomes [5]; with Liver microsomes [6]) was “Stable” each time.
